Source: paper PMC12275099, “VX-445 (elexacaftor) inhibits chloride secretion across human bronchial epithelial cells by directly blocking KCa3.1 channels” (PNAS Nexus, 2025)

Legend:
[1] = parameters: method as in earlier work; conditions: clinical trial data, converted, cited from earlier work
KCa2.3 = KCa2.3 (Homo sapiens, UniProt Q9UGI6); assay: Excised inside-out patch-clamp on HEK cells expressing KCa2.3; assay type: biochemical; conditions: 10 µM; 1 µM free Ca2+; n = 4; VX-659 added subsequent to VX-445; read-out: inhibition of KCa2.3 currents
Chain of KCa2.3 (Q9UGI6 whole entry): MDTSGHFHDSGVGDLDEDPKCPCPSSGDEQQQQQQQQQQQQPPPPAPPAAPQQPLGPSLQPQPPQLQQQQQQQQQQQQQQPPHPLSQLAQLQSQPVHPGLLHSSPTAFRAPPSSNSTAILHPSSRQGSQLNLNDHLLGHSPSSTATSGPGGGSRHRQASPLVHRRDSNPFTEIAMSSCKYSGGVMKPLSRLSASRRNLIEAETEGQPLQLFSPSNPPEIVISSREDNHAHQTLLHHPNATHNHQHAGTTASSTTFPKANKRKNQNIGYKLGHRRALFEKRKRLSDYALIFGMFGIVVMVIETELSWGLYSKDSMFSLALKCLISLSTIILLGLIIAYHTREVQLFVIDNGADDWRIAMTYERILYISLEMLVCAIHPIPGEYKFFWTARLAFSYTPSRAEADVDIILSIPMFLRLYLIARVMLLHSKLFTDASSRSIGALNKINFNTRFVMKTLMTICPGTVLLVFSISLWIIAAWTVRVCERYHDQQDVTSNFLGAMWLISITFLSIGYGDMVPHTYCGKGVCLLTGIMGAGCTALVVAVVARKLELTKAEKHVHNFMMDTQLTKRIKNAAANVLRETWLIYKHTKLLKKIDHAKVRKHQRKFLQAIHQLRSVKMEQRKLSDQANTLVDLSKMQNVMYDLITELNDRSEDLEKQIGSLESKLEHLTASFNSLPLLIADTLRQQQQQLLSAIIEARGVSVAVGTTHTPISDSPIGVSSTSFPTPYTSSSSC
Description: As above, we performed excised patch-clamp recordings on HEK cells heterologously expressing KCa2.3 or KCa2.2, in order to assess the activity of C2 CFTR corrector compounds. […] In contrast, the subsequent addition of 10 µM VX-659 yielded an almost complete inhibition of KCa2.3 currents, averaging 91 ± 3% (n = 4).
HEK cells stably expressing KCa3.1 (IK1, SK4), KCa2.3 (SK3), and KCa2.2 (SK2) were generated and cultured as previously described by us ([37], [66–71]).
HEK cells expressing the channel of interest were plated onto poly-L-lysine-coated glass coverslips 1–2 days prior to patch-clamp analysis. Electrophysiological recordings in the excised, inside-out, and whole-cell patch-clamp configurations were performed as recently described ([14]). For excised patch-clamp recordings, the pipette solution contained (in mM): 140 K-gluconate, 5 KCl, 1 CaCl2, 1 MgCl2, and 10 HEPES. The pH was adjusted to 7.2 with KOH. The bath solution contained (in mM): 145 K-gluconate, 5 KCl, 1.3 MgCl2, 10 HEPES, and 1 EGTA. Sufficient CaCl2 was added to obtain the desired free Ca^2+ concentration at a pH of 7.2 (adjusted with KOH). When recording KCa3.1 channels, ATP (300 µM) was added to the bath to diminish channel rundown ([73]). All recordings were carried out at a voltage of −100 mV, referenced to the extracellular compartment, as is standard. The apparent Ki and Hill coefficient for each CFTR corrector on KCa3.1, KCa2.3, and KCa2.2 were determined during a continuous recording by step-wise addition of increasing concentrations of compound and fitting the resultant relative remaining current to a Hill equation (Prism v. 10.1.0). The zero current level was determined by the addition of a 0 Ca^2+ solution (zero-added Ca^2+ plus 1 mM EGTA) at the end of the experiment. […] Current–voltage relationships were determined by stepping from a holding potential of −80 mV to +80 mV in 20 mV increments for 400 ms. The middle 300 ms of each trace was selected to avoid any influence of capacitive transients, and average currents were calculated for each voltage via the I–V tool in Clampfit. […]

Cc1nn(C)cc1S(=O)(=O)NC(=O)c1ccc(-n2ccc(OCC(C)(C)C(F)(F)F)n2)nc1N1C[C@@H](C)CC1(C)C [VX-445, elexacaftor]
minimal (Cmin) plasma concentration [1]: 6 to 9 µM | Cmax ([1]; read-out: maximal (Cmax) plasma concentration): ~15 µM | inhibition at 10 µM (KCa2.3): 15 ± 5%
